Test results reported in paper PMC2884014 (Biochemistry, 2010).
Read-outs that look alike come from different tables or passages of the source.

How the values were obtained:
Assay type in all cases: biochemical
[1] = target: T1, MurA (UDP-N-acetylglucosamine 1-carboxyvinyltransferase) (Enterobacter cloacae, UniProt P33038); assay: crystal structure at […] Å
[2] = target: T1, MurA (UDP-N-acetylglucosamine 1-carboxyvinyltransferase); assay: crystal structure at […] Å; remark: listed apart in the source
[3] = target: MurA (UDP-N-acetylglucosamine 1-carboxyvinyltransferase) (Escherichia coli, UniProt P0A749); assay: malachite green assay of residual MurA activity
Chain of MurA (UDP-N-acetylglucosamine 1-carboxyvinyltransferase) (Escherichia coli, UniProt P0A749) (P0A749 whole entry): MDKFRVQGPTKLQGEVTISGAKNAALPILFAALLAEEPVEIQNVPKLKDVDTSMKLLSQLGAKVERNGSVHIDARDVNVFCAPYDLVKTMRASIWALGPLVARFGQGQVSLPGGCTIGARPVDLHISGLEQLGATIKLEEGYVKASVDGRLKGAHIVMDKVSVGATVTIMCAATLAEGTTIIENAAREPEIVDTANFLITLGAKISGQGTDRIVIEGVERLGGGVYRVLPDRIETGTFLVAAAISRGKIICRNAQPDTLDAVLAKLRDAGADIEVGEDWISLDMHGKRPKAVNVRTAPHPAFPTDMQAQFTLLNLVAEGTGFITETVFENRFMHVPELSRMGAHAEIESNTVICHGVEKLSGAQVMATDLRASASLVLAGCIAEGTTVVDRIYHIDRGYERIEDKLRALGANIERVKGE

T1 sequence (P33038 whole entry): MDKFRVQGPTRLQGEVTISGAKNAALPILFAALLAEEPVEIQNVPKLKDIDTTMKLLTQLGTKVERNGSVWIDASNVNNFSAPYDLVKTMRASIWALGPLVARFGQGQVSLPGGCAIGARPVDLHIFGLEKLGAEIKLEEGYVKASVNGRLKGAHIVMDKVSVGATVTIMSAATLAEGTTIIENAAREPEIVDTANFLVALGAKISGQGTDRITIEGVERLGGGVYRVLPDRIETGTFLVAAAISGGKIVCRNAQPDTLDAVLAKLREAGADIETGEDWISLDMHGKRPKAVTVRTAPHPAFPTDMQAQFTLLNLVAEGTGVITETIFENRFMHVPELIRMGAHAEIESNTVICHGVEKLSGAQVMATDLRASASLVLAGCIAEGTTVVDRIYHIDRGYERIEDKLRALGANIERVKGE

`C[C@@H]1O[C@@H]1P(=O)(O)O` [fosfomycin, (1R,2S)-1,2-epoxypropyl phosphonic acid] was tested. Which IC50 [1] did it give?
The IC50 was 0.25 ± 0.01 µM.

What does the source list for `CC1=C(O)C(=O)[C@@H]2O[C@@H]2C1=O` [terreic acid]?
IC50 [2]: 14 ± 0.6 µM; malachite green assay of residual MurA activity [3]: terreic acid is a covalent inhibitor of the bacterial cell wall biosynthetic enzyme MurA from E. cloacae and E. coli in-vitro
